Assays:
[1] = test system: tumor cells; experiment: ADCC on tumor cells; type: cell-based
[2] = test system: RPMI-8226 tumors; experiment: RPMI-8226 hind-flank xenograft model (Example 3, FIGS. 13-14); type: in vivo, mice; conditions: RPMI-8226 xenograft; hu38SB19 twice weekly × 2 wk IV; lenalidomide qdx7×3 wk PO
Description: Lenolidomide (TC27682) was obtained from AK Scientific Inc. (Mountain View, Calif.) and prepared as a suspension in 1% (w/v) carboxymethyl cellulose (Sigma). Preparation was made using a mortar and pestle to generate a slurry suspension in the vehicle, diluted to the appropriate concentration, and used for dosing by oral gavage. Lenalidomide was administered qdx7×3 wk PO.
Zion Animal Barrier Facility.
RPMI-8226 were cultured in RPMI1640+10% FBS+4 mM L-glutamine.

[3] = test system: NCI-H929 multiple myeloma model; experiment: NCI-H929 subcutaneous multiple myeloma xenograft mouse model; type: in vivo, mice; conditions: lenalidomide 1 mg/kg/day PO QD × 21 d; for Activity: hu38SB19 0.5 mg/kg/injection IV 2x/wk × 2 wk
Description: (§1) The subcutaneous multiple myeloma (MM) xenograft mouse models were established using H929 and RPMI8226 cell lines. Specifically, 5-6 week old female Balb/c Scid mice were obtained from Jackson Lab. Mice were housed for 7-10 days prior to implantation. Mice were housed in a dedicated room in the UCSF Mt Zion Animal Barrier Facility. NCI-H929 and RPMI-8226 cells were obtained from the German Collection of Microorganisms and Cell Cultures, DSMZ, (Deutsche Sammlung von Mikroorganismen and Zellkulturen), and grown in sterile suspension culture in T225 flasks as follows: NCI-H929:RPMI1640+20% FBS+4 mM L-glutamine+1 mM sodium pyruvate+50 μM mercaptoethanol. RPMI-8226:RPMI1640+10% FBS+4 mM L-glutamine.
(§2) At the time of implantation, mice were shaved on the right flank and shoulder region and anesthetized with ip avertin. MM cells suspended in serum free RPMI 1640 media diluted 1:1 with Matrigel (BD) at a concentration of 1×10^8 cells per ml were injected sc into the right flank in 100 μL volume (1×10^7 cells) using a 1 ml syringe and 25 g needle. Mice were monitored twice weekly for the appearance of tumors and once tumors were visible, measurements were collected twice weekly for body weight and tumor volume. Electronic balance and calipers were used and data was collected directly into a study management program (Study Director). When the mean tumor volume reached about 150-200 mm^3, the mice were distributed into treatment groups of 8-10 mice per groups and dosing was begun.
(§3) Data were collected using electronic balance and calipers using a study management application called StudyLog (Study Director).
(§4) Antitumor activity was determined according to NCI standards based on the ratio of the median tumor volume change of the treated/median tumor volume change of the control×100 (% ΔT/ΔC). Low numerical values for ΔT/ΔC describe stronger anti-tumor activity. Anti-tumor activity is defined as ΔT/ΔC≤40% at minimum. ΔT/ΔC<10% is considered high anti-tumor activity.

[4] = test system: RPMI-8226 multiple myeloma model; experiment: RPMI-8226 subcutaneous multiple myeloma xenograft mouse model; conditions: RPMI-8226 xenograft, hu38SB19 15 mg/kg/injection IV 2x/wk × 2 wk, lenalidomide 15 mg/kg/day PO QD × 21 d
Description: as §1, §2, §3, §4

[5] = test system: tumor cells; experiment: Apoptosis induction on tumor cells (preclinical studies); type: cell-based; conditions: without cross-linking
[6] = test system: tumor cells; conditions: reported for other CD38 antibodies; cited from earlier work

Compound: hu38SB19: humanized anti-CD38 antibody; VH SEQ ID NO: 66, VL SEQ ID NO: 62 or 64
- ADCC activity on tumor cells [1]: potent ADCC
- Tumor growth inhibition [2]: dose-dependent inhibition of tumor growth
- Activity [3]: Active
- Activity [4]: Inactive
- Pro-apoptotic activity on tumor cells [5]: potent direct pro-apoptotic activity

Compound: Nc1cccc2c1CN(C1CCC(=O)NC1=O)C2=O (racemic) [Lenalidomide, (RS)-3-(4-amino-1-oxo-3H-isoindol-2-yl)piperidine-2,6-dione]
- Tumor growth inhibition [2]: not robustly sensitive to single-agent therapy
- % ΔT/ΔC (D69) ([3]; D69, hu38SB19 0.5 mg/kg/injection IV 2x/wk × 2 wk): 20%
- Activity [3]: Active
- Activity ([3]; listed as lenalidomide): active
- % ΔT/ΔC (D69) ([4]; D69): 61%
- Activity [4]: Inactive
- Activity ([4]; listed as lenalidomide): inactive

Compound: Daratumumab: CD38 antibody reported to induce apoptosis only after cross-linking
- Apoptosis induction [6]: able to induce apoptosis only after cross-linking with a secondary antibody
